From US20250270222A1, “AP2 ASSOCIATED KINASE 1 INHIBITORS AND USES THEREOF” (Satellos Bioscience Inc., priority 2023, published 2025)
pIC50: −log10 of the molar value.

Tests used:
[1] = molecular target: AAK1 (amino acids T27-A365) (Homo sapiens (Human), UniProt Q2M2I8); assay: AAK1 pSENs assay; assay type: biochemical; conditions: ratio of AAK1 pSENs activity to GAK pSENs activity
Experimental: (§1) The recombinant proteins were independently expressed in Esherichia coli BL21(DE3) cells cultured in Luria-Bertani (LB) medium until OD600 reached 0.6-0.8, then cooled to 15° C., and supplemented with 0.5 mM isopropyl 1-thio-D-galactopyranoside (IPTG) induce protein expression 16 h. Cells were harvested and resuspended in lysis buffer (50 mM HEPES pH 7.5, 500 mM NaCl, 5 mM imidazole, 5% glycerol, 0.5 mM Tris (2-carboxyethyl) phosphine (TCEP), cOmplete Protease Inhibitor Tablet (Roche)) and lysed by microfluidics high pressure homogenizer (UH-06, Union-Biotech). Proteins were purified using Ni-Affinity chromatography (His FF column, Bestchrom) and eluted stepwise in binding buffer with 20-300 mM imidazole. Removal of the hexahistidine tag was performed at 4° C. overnight using recombinant TEV protease and reacted with BirA to obtain the corresponding biotinylated-AAK1. BIKE or GAK proteins. Further separated in the reverse Strep column (Strep-Tactin® XT, IBA). The Biotin elution sample was collected containing untagged biotinylated protein was then purified by Ion-exchange chromatography (Mono Q 10/100 GL, Cytiva) and Size-exclusion chromatography (HiLoad 16/600 Superdex 200 pg, Cytiva). The pure protein was stored in a storage buffer 50 mM HEPES (pH 7.5), 300 mM NaCl, 5% glycerol at −80° C. Protein were characterized by SDS-PAGE. LC-MS and aSEC.
This example describes one illustrative method for determining the IC50 of the compounds of the present invention against AAK1 (amino acids T27-A365). AAK1 protein was dissolved at 20 nM in 1× enzyme solution (50 mM HEPES pH7.5, 10 mM MgCl2, 1 mM DTT, 1% glycerol, 0.5 mM EGTA, 0.01% Briji35, 0.02% BSA) and 12.5 ul was incubated with 250 nl DMSO or 250 nl compound in DMSO at 25° C. for 15 min. The reaction was started by addition of 12.5 ul of 30 uM AQT0759 (Assayquant, CSKS-AQT0759B) and 70 uM ATP which were diluted in 1× substrate dilution buffer (50 mM HEPES pH7.5, 10 mM MgCl2, 1 mM DTT, 1% glycerol, 0.5 mM EGTA, 0.01% Briji35).

[2] = molecular target: GAK (amino acids Q25-N335) (Homo sapiens (Human), UniProt O14976); assay: GAK pSENs assay; assay type: biochemical
Experimental: as §1
This example describes one illustrative method for determining the IC50 of the compounds of the present invention against GAK (amino acids Q25-N335).

Sequence of GAK (amino acids Q25-N335) (O14976 25-335): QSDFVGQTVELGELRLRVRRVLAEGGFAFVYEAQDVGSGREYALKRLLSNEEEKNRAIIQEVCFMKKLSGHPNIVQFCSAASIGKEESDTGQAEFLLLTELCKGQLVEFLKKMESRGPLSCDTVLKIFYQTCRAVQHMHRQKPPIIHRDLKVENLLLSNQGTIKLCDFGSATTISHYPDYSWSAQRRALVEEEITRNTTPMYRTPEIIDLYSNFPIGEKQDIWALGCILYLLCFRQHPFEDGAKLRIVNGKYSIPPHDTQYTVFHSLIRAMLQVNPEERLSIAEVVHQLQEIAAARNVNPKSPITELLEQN
Sequence of AAK1 (amino acids T27-A365) (Q2M2I8 27-365): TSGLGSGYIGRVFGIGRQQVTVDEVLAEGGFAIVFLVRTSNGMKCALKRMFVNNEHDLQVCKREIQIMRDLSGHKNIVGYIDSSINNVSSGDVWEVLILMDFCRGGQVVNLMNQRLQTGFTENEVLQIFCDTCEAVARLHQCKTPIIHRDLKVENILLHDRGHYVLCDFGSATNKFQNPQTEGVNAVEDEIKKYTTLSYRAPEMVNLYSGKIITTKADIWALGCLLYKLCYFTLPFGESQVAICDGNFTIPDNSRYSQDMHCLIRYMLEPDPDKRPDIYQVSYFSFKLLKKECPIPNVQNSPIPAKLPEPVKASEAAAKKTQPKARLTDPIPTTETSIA

Row | AAK1:GAK pSENs Selectivity [1] | Compound | pIC50 [2]
1 | A (A: ≤0.015) | CC1(OC(=O)N2CCN(c3ccn4ncc(-c5cccnc5OC5COC5)c4n3)CC2)COC1 [Compound I-18, (3-Methyloxetan-3-yl)-4-[3-[2-(oxetan-3-yloxy)-3-pyridyl]pyrazolo[1,5-a]pyrimidin-5-yl]piperazine-1-carboxylate] | < 5.82
2 | A (A: ≤0.015) | O=C1C[C@H](OC(=O)N2CCN(c3ccn4ncc(-c5cccnc5OC5COC5)c4n3)CC2)CN1 [Compound I-25, [(3S)-5-Oxopyrrolidin-3-yl]4-[3-[2-(oxetan-3-yloxy)-3-pyridyl]pyrazolo[1,5-a]pyrimidin-5-yl]piperazine-1-carboxylate] | < 5.82
3 | A (A: ≤0.015) | CC(C)Oc1ncccc1-c1cnn2ccc(N3CCN(C(=O)O[C@@H]4CNC(=O)C4)CC3)nc12 [Compound I-26, [(3S)-5-Oxopyrrolidin-3-yl]-4-[3-(2-isopropoxy-3-pyridyl)pyrazolo[1,5-a]pyrimidin-5-yl]piperazine-1-carboxylate] | < 5.82
4 | A (A: ≤0.015) | COc1cnc(OC2CC2)c(-c2cnn3ccc(N4CCN(C(=O)O[C@H]5CC(=O)N(C)C5)CC4)nc23)c1 [Compound I-87] | 
5 | E (E: >1.00) | CN1C[C@@H](OC(=O)N2CCN(c3ccn4ncc(Cl)c4n3)CC2)CC1=O [Compound I-96, [(3S)-1-methyl-5-oxo-pyrrolidin-3-yl]-4-(3-chloropyrazolo[1,5-a]pyrimidin-5-yl)piperazine-1-carboxylate] | 
6 | C (C: 0.076-0.15) | CN1C[C@@H](OC(=O)N2CCN(c3ccn4ncc(-c5cccnc5O)c4n3)CC2)CC1=O [Compound I-98, [(3S)-1-methyl-5-oxo-pyrrolidin-3-yl]-4-[3-(2-hydroxy-3-pyridyl)pyrazolo[1,5-a]pyrimidin-5-yl]piperazine-1-carboxylate] | 
7 | D (D: 0.16-1.00) | CC(C)(C)OC(=O)N1CCN(c2ccn3ncc(Cl)c3n2)CC1 [Compound I-100, tert-butyl 4-(3-chloropyrazolo[1,5-a]pyrimidin-5-yl)piperazine-1-carboxylate] | 
8 | A (A: ≤0.015) | CC(C)(C)OC(=O)N1CCN(c2ccn3ncc(-c4cccnc4O)c3n2)CC1 [Compound I-102, tert-butyl 4-[3-(2-hydroxy-3-pyridyl)pyrazolo[1,5-a]pyrimidin-5-yl]piperazine-1-carboxylate] | 
9 | C (C: 0.076-0.15) | Oc1ncccc1-c1cnn2ccc(N3CCNCC3)nc12 [Compound I-106, 3-(5-piperazin-1-ylpyrazolo[1,5-a]pyrimidin-3-yl)pyridin-2-ol] | 
10 | 0.0083 | COc1ncccc1-c1cnn2ccc(N3CCN(C(=O)OC4(C)COC4)CC3)nc12 [RC-1, (3-methyloxetan-3-yl)-4-[3-(2-methoxy-3-pyridyl)pyrazolo[1,5-a]pyrimidin-5-yl]piperazine-1-carboxylate, reference compound] | 

The next lines start with the compound.

Row | Compound | AAK1:GAK pSENs Selectivity [1] | pIC50 [2]
11 | CC(C)Oc1ncccc1-c1cnn2ccc(N3CCN(C(=O)OC4(C)COC4)CC3)nc12 [Compound I-1, (3-methyloxetan-3-yl)-4-[3-(2-isopropoxy-3-pyridyl)pyrazolo[1,5-a]pyrimidin-5-yl]piperazine-1-carboxylate] | A (A: ≤0.015) | < 5.82
12 | CC1(OC(=O)N2CCN(c3ccn4ncc(-c5cccnc5OC5CC5)c4n3)CC2)COC1 [Compound I-2, (3-methyloxetan-3-yl)-4-[3-[2-(cyclopropoxy)-3-pyridyl]pyrazolo[1,5-a]pyrimidin-5-yl]piperazine-1-carboxylate] | A (A: ≤0.015) | < 5.82
13 | COc1ncccc1-c1cnn2ccc(N3CCN(C(=O)OC4CNC(=O)C4)CC3)nc12 (stereo not shown) [Compound I-6, (5-Oxopyrrolidin-3-yl) 4-[3-(2-methoxy-3-pyridyl)pyrazolo[1,5-a]pyrimidin-5-yl]piperazine-1-carboxylate] | A (A: ≤0.015) | < 5.82
14 | O=C1C[C@@H](OC(=O)N2CCN(c3ccn4ncc(-c5cccnc5OC5CC5)c4n3)CC2)CN1 [Compound I-10, [(3R)-5-Oxopyrrolidin-3-yl]-4-[3-[2-(cyclopropoxy)-3-pyridyl]pyrazolo[1,5-a]pyrimidin-5-yl]piperazine-1-carboxylate] | A (A: ≤0.015) | < 5.82
15 | O=C1C[C@H](OC(=O)N2CCN(c3ccn4ncc(-c5cccnc5OC5CC5)c4n3)CC2)CN1 [Compound I-11, [(3S)-5-Oxopyrrolidin-3-yl]-4-[3-[2-(cyclopropoxy)-3-pyridyl]pyrazolo[1,5-a]pyrimidin-5-yl]piperazine-1-carboxylate hydrochloric acid] | A (A: ≤0.015) | < 5.82
16 | CN(CCNc1ccn2ncc(-c3cccnc3OC3CC3)c2n1)C(=O)O[C@H]1CO[C@H]2OCC[C@H]21 [Compound I-71, (3R,3aS,6aR)-hexahydrofuro[2,3-b]furan-3-yl (2-((3-(2-cyclopropoxypyridin-3-yl)pyrazolo[1,5-a]pyrimidin-5-yl)amino)ethyl)(methyl)carbamate] | B (B: 0.016-0.075) | 
17 | [2H]C1([2H])N(C(=O)O[C@H]2CC(=O)N(C)C2)C([2H])([2H])C([2H])([2H])N(c2ccn3ncc(-c4cccnc4OC4CC4)c3n2)C1([2H])[2H] [Compound I-73, [(3S)-1-methyl-5-oxo-pyrrolidin-3-yl]-4-[3-[2-(cyclopropoxy)-3-pyridyl]pyrazolo[1,5-a]pyrimidin-5-yl]-2,2,3,3,5,5,6,6-octadeuterio-piperazine-1-carboxylate] |  | < 5.82
18 | CN1C[C@@H](OC(=O)N2CCN(c3ccn4ncc(-c5cc(OC(F)(F)F)cnc5OC5CC5)c4n3)CC2)CC1=O [Compound I-88] | B (B: 0.016-0.075) | 
19 | CN1C[C@H](OC(=O)N2CCN(c3ccn4ncc(-c5cccnc5OC5CC5)c4n3)CC2)CC1=O [Compound I-94] | A (A: ≤0.015) | 
20 | CN1C[C@@H](OC(=O)N2CCN(c3ccn4nccc4n3)CC2)CC1=O [Compound I-97, [(3S)-1-methyl-5-oxo-pyrrolidin-3-yl]-4-pyrazolo[1,5-a]pyrimidin-5-ylpiperazine-1-carboxylate] | E (E: >1.00) | 
21 | Brc1cnn2ccc(N3CCNCC3)nc12 [Compound I-103, 3-bromo-5-piperazin-1-yl-pyrazolo[1,5-a]pyrimidine] | E (E: >1.00) | 
22 | Clc1cnn2ccc(N3CCNCC3)nc12 [Compound I-104, 3-chloro-5-piperazin-1-yl-pyrazolo[1,5-a]pyrimidine] | E (E: >1.00) | 
23 | c1cc2nc(N3CCNCC3)ccn2n1 [Compound I-105, 5-piperazin-1-ylpyrazolo[1,5-a]pyrimidine] | E (E: >1.00) | 
24 | [2H]C([2H])([2H])N1C[C@@H](OC(=O)N2CCN(c3nc4c(-c5cc(OC)cnc5OC5CC5)cnn4cc3F)CC2)CC1=O [Compound I-117, [(3S)-5-oxo-1-(trideuteriomethyl)pyrrolidin-3-yl]4-[3-[2-(cyclopropoxy)-5-methoxy-3-pyridyl]-6-fluoro-pyrazolo[1,5-a]pyrimidin-5-yl]piperazine-1-carboxylate] | A (A: ≤0.015) | 
25 | CC(C)(C)OC(=O)NCCNc1nc2c(-c3cccnc3OC3CC3)cnn2cc1F [Compound I-124, tert-butyl N-[2-[[3-[2-(cyclopropoxy)-3-pyridyl]-6-fluoro-pyrazolo[1,5-a]pyrimidin-5-yl]amino]ethyl]carbamate] | C (C: 0.076-0.15) | 
26 | CC(C)(C)OC(=O)NCCNc1ccc2ncc(-c3cccnc3OC3CC3)n2n1 [Compound I-129, tert-butyl N-[2-[[3-[2-(cyclopropoxy)-3-pyridyl]imidazo[1,2-b]pyridazin-6-yl]amino]ethyl]carbamate] | C (C: 0.076-0.15) | 
